From patent publication US11866450B2, “Modulators of Cystic Fibrosis Transmembrane Conductance regulator, pharmaceutical compositions, methods of treatment, and process for making the modulators” (priority 2018, dated 2024)
Like-named read-outs stand apart in the source and are kept apart here.

Assays:
[1] = snar bond, DMSO
[2] = target: CFTR-mediated chloride transport (Homo sapiens, UniProt P13569); format: cell-based; details: enteroid cells incubated with test compound 18-24 hours, acute 10 μM forskolin and 300 nM Compound III; for Max. Activity: % of chloride transport with 3 μM Compound A, 3 μM Compound II and 300 nM acute Compound III triple combination control
Sequence of CFTR-mediated chloride transport (P13569 whole entry, looked up): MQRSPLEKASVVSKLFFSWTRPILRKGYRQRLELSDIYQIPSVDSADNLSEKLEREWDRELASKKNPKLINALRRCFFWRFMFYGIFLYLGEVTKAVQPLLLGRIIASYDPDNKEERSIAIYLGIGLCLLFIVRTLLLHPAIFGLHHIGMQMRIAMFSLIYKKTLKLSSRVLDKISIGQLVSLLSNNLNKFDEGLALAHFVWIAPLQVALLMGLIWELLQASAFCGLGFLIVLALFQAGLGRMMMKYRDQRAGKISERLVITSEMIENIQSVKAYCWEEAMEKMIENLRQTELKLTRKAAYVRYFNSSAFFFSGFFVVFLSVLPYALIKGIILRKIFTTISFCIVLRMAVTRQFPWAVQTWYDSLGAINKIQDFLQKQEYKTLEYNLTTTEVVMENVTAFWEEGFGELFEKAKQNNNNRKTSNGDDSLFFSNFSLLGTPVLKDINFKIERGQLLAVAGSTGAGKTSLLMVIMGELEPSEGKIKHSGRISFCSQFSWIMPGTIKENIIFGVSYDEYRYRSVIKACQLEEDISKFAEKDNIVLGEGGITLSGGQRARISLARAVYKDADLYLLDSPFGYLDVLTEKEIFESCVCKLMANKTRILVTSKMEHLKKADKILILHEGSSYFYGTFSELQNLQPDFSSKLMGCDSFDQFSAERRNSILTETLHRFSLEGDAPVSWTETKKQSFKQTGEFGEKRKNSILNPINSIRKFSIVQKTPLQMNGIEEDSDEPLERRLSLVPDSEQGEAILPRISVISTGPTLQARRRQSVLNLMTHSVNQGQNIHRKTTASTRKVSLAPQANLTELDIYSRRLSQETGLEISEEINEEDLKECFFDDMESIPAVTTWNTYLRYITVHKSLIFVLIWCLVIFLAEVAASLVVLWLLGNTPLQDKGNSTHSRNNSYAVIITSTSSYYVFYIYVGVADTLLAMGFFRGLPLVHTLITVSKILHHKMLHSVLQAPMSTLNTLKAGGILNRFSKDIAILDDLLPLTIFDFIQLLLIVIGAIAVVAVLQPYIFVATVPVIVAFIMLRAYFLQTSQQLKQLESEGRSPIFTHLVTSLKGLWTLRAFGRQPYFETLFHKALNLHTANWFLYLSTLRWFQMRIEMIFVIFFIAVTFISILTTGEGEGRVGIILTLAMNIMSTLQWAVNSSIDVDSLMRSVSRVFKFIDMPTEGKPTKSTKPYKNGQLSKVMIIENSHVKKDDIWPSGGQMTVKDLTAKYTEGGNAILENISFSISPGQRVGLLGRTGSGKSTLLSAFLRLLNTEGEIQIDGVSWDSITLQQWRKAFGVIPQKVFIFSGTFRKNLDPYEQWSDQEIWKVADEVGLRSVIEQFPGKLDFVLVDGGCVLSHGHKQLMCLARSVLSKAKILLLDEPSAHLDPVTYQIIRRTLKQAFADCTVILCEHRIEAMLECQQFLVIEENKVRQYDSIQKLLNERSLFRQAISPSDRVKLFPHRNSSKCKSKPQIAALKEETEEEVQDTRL
Procedure, shortened: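 Human intestinal enteroid cells incubated with compound 18–24 h at 37° C., then membrane potential dye (FLIPR) read 15 min after chloride-free stimulation with 10 μM forskolin, 100 μM IBMX and 300 nM Compound III. AUC expressed as % of triple-combination control (3 μM Compound A, 3 μM Compound II, 300 nM Compound III).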

SMILES | EC50 [2] [µM] | Max. Activity [2] | other results
CC1(C)CC2CCCNc3cccc(n3)S(=O)(=O)NC(=O)c3ccc(-n4ccc(OCCC(C5CC5)C5CC5)n4)nc3N1C2 (stereo not drawn) [Compound 43, 8-[3-(3,3-dicyclopropylpropoxy)-1H-pyrazol-1-yl]-12,12-dimethyl-2λ^6-thia-3,9,11,18,23-pentaazatetracyclo[17.3.1.111,14.05,10]tetracosa-1(22),5,7,9,19(23),20-hexaene-2,2,4-trione] | < 1 | +++ (+++ is >60%) | ring closure, yield after HPLC ([1]; from CC1(C)CC(CCCNc2cccc(S(=O)(=O)NC(=O)c3ccc(-n4ccc(OCCC(C5CC5)C5CC5)n4)nc3Cl)n2)CN1, 15-membered ring, K2CO3/CsF/3A MS, 26.4 mM, 130.0 °C, 2 steps): 55%
CC1(C)CC2CN1c1nc(-n3ccc(OCCC4(C(F)(F)F)CC4)n3)ccc1C(=O)NS(=O)(=O)c1cccc(n1)NCCO2 (stereo not drawn) [Compound 69, 12,12-dimethyl-8-(3-{2-[1-(trifluoromethyl)cyclopropyl]ethoxy}-1H-pyrazol-1-yl)-15-oxa-2λ^6-thia-3,9,11,18,23-pentaazatetracyclo[17.3.1.111,14.05,10]tetracosa-1(22),5(10),6,8,19(23),20-hexaene-2,2,4-trione] | < 1 | +++ (+++ is >60%) | ring closure, yield after HPLC ([1]; from CC(C)(C)OC(=O)N1CC(OCCNc2cccc(S(=O)(=O)NC(=O)c3ccc(-n4ccc(OCCC5(C(F)(F)F)CC5)n4)nc3Cl)n2)CC1(C)C, 15-membered ring, HCl (Boc off), K2CO3/CsF/3A MS, 62.3 mM, 150.0 °C, 2 steps): 61%
Cc1nn2cc1S(=O)(=O)NC(=O)c1ccc(-n3ccc(OCCC4(C(F)(F)F)CC4)n3)nc1N1CC(CCCC2)CC1(C)C (stereo not drawn) [Compound 71, 12,21,21-trimethyl-4-(3-{2-[1-(trifluoromethyl)cyclopropyl]ethoxy}-1H-pyrazol-1-yl)-10λ^6-thia-1,3,9,13,14-pentaazatetracyclo[17.2.1.111,14.02,7]tricosa-2,4,6,11(23),12-pentaene-8,10,10-trione] | > 3 | + (+ is <30%) | ring closure, yield after HPLC ([1]; from Cc1nn(CCCCC2CNC(C)(C)C2)cc1S(=O)(=O)NC(=O)c1ccc(-n2ccc(OCCC3(C(F)(F)F)CC3)n2)nc1Cl, 15-membered ring, K2CO3/CsF, 130.1 mM, 150.0 °C): 50%
CC1(C)C[C@@H]2CCCOc3cccc(c3)S(=O)(=O)NC(=O)c3ccc(-n4ccc(OCCC5(C(F)(F)F)CC5)n4)nc3N1C2 [Compound 77, (14S)-12,12-Dimethyl-8-(3-{2-[1-(trifluoromethyl)cyclopropyl]ethoxy}-1H-pyrazol-1-yl)-18-oxa-2λ^6-thia-3,9,11-triazatetracyclo[17.3.1.111,14.05,10]tetracosa-1(23),5(10),6,8,19,21-hexaene-2,2,4-trione] | < 1 | +++ (+++ is >60%) | ring closure, yield after HPLC ([1]; from CC1(C)C[C@H](CCCOc2cccc(S(=O)(=O)NC(=O)c3ccc(-n4ccc(OCCC5(C(F)(F)F)CC5)n4)nc3Cl)c2)CN1, 15-membered ring, K2CO3/CsF/3A MS, 62.9 mM, 150.0 °C, 20.0 h, 2 steps): 20%
CC1(C)CC2CCCCc3cccc(n3)S(=O)(=O)NC(=O)c3ccc(-n4ccc(OCCC5(C(F)(F)F)CC5)n4)nc3N1C2 (stereo not drawn) [Compound 78, 12,12-dimethyl-8-(3-{2-[1-(trifluoromethyl)cyclopropyl]ethoxy}-1H-pyrazol-1-yl)-2λ^6-thia-3,9,11,23-tetraazatetracyclo[17.3.1.111,14.05,10]tetracosa-1(23),5,7,9,19,21-hexaene-2,2,4-trione] | < 1 | +++ (+++ is >60%) | ring closure, yield after HPLC ([1]; from CC(C)(C)OC(=O)N1CC(CCCCc2cccc(S(=O)(=O)NC(=O)c3ccc(-n4ccc(OCCC5(C(F)(F)F)CC5)n4)nc3Cl)n2)CC1(C)C, 15-membered ring, HCl (Boc off), K2CO3/CsF/3A MS, 65.0 mM, 150.0 °C, 2 steps): 37%
CC1(C)CC2CCCOc3ccc(cn3)S(=O)(=O)NC(=O)c3ccc(-n4ccc(OCCC5(C(F)(F)F)CC5)n4)nc3N1C2 (stereo not drawn) [Compound 90, 12,12-dimethyl-8-(3-{2-[1-(trifluoromethyl)cyclopropyl]ethoxy}-1H-pyrazol-1-yl)-18-oxa-2λ^6-thia-3,9,11,20-tetraazatetracyclo[17.2.2.111,14.05,10]tetracosa-1(21),5(10),6,8,19,22-hexaene-2,2,4-trione] | < 1 | ++ (++ is 30-60%) | ring closure, yield after HPLC ([1]; from CC(C)(C)OC(=O)N1CC(CCCOc2ccc(S(=O)(=O)NC(=O)c3ccc(-n4ccc(OCCC5(C(F)(F)F)CC5)n4)nc3Cl)cn2)CC1(C)C, 16-membered ring, HCl (Boc off), K2CO3/CsF/3A MS, 61.4 mM, 155.0 °C, 2 steps): 7%
CC1(C)CC2CCCNc3cc(ccn3)S(=O)(=O)NC(=O)c3ccc(-n4ccc(OCCC5(C(F)(F)F)CC5)n4)nc3N1C2 (stereo not drawn) [Compound 93, 12,12-dimethyl-8-(3-{2-[1-(trifluoromethyl)cyclopropyl]ethoxy}-1H-pyrazol-1-yl)-2λ^6-thia-3,9,11,18,20-pentaazatetracyclo[17.3.1.111,14.05,10]tetracosa-1(22),5,7,9,19(23),20-hexaene-2,2,4-trione] | < 1 | +++ (+++ is >60%) | ring closure, yield after HPLC ([1]; from CC(C)(C)OC(=O)N1CC(CCCNc2cc(S(=O)(=O)NC(=O)c3ccc(-n4ccc(OCCC5(C(F)(F)F)CC5)n4)nc3Cl)ccn2)CC1(C)C, 15-membered ring, TFA (Boc off), CsF/K2CO3/3A MS, 26.0 mM, 130.0 °C, 2 steps): 30%
Cc1ccc2nc1OCCC[C@@H]1CN(c3nc(-n4ccc(OCCC5(C(F)(F)F)CC5)n4)ccc3C(=O)NS2(=O)=O)C(C)(C)C1 [Compound 109, (14S)-12,12,20-Trimethyl-8-(3-{2-[1-(trifluoromethyl)cyclopropyl]ethoxy}-1H-pyrazol-1-yl)-18-oxa-2λ^6-thia-3,9,11,23-tetraazatetracyclo[17.3.1.111,14.05,10]tetracosa-1(23),5(10),6,8,19,21-hexaene-2,2,4-trione] | < 1 | ++ (++ is 30-60%) | ring closure, yield after HPLC ([1]; from Cc1ccc(S(=O)(=O)NC(=O)c2ccc(-n3ccc(OCCC4(C(F)(F)F)CC4)n3)nc2Cl)nc1OCCC[C@@H]1CN(C(=O)OC(C)(C)C)C(C)(C)C1, 15-membered ring, HCl (Boc off), K2CO3/CsF/3A MS, 62.8 mM, 140.0 °C, 2 steps): 32%
Cc1nn2cc1S(=O)(=O)NC(=O)c1ccc(-n3ccc(OCCC4(C(F)(F)F)CC4)n3)nc1N1C[C@@H](CCC2)CC1(C)C [Compound 112, (18S)-12,20,20-trimethyl-4-(3-{2-[1-(trifluoromethyl)cyclopropyl]ethoxy}-1H-pyrazol-1-yl)-10λ^6-thia-1,3,9,13,14-pentaazatetracyclo[16.2.1.111,14.02,7]docosa-2,4,6,11(22),12-pentaene-8,10,10-trione] | < 1 | ++ (++ is 30-60%) | ring closure, yield after HPLC ([1]; from Cc1nn(CCC[C@@H]2CNC(C)(C)C2)cc1S(=O)(=O)NC(=O)c1ccc(-n2ccc(OCCC3(C(F)(F)F)CC3)n2)nc1Cl, 14-membered ring, K2CO3/CsF, 37.8 mM, 160.0 °C): 26%
CC1(C)CC2CCCCNc3ccc(nc3)S(=O)(=O)NC(=O)c3ccc(-n4ccc(OCCC5(C(F)(F)F)CC5)n4)nc3N1C2 (stereo not drawn) [Compound 123, 12,12-Dimethyl-8-(3-{2-[1-(trifluoromethyl)cyclopropyl]ethoxy}-1H-pyrazol-1-yl)-2λ^6-thia-3,9,11,19,22-pentaazatetracyclo[18.2.2.111,14.05,10]pentacosa-1(22),5(10),6,8,20,23-hexaene-2,2,4-trione] | < 1 | +++ (+++ is >60%) | ring closure, yield after HPLC ([1]; from CC(C)(C)OC(=O)N1CC(CCCCNc2ccc(S(=O)(=O)NC(=O)c3ccc(-n4ccc(OCCC5(C(F)(F)F)CC5)n4)nc3Cl)nc2)CC1(C)C, 17-membered ring, K2CO3/CsF/3A MS, 110.5 mM, 150.0 °C, 2 steps): 4%
Cc1ccc2nc1S(=O)(=O)NC(=O)c1ccc(-n3ccc(OCCC4(C(F)(F)F)CC4)n3)nc1N1CC(CCCN2)CC1(C)C (stereo not drawn) [Compound 129, 12,12,22-Trimethyl-8-(3-{2-[1-(trifluoromethyl)cyclopropyl]ethoxy}-1H-pyrazol-1-yl)-2λ^6-thia-3,9,11,18,23-pentaazatetracyclo[17.3.1.111,14.05,10]tetracosa-1(23),5(10),6,8,19,21-hexaene-2,2,4-trione] | < 1 | +++ (+++ is >60%) | ring closure, yield after HPLC ([1]; from Cc1ccc(NCCCC2CN(C(=O)OC(C)(C)C)C(C)(C)C2)nc1S(=O)(=O)NC(=O)c1ccc(-n2ccc(OCCC3(C(F)(F)F)CC3)n2)nc1Cl, 15-membered ring, K2CO3/CsF/3A MS, 79.1 mM, 140.0 °C, 2 steps): 34%
CC1(C)CC2CCCCNc3ccc(cn3)S(=O)(=O)NC(=O)c3ccc(-n4ccc(OCCC(C5CC5)C5CC5)n4)nc3N1C2 (stereo not drawn) [Compound 130, 8-[3-(3,3-Dicyclopropylpropoxy)-1H-pyrazol-1-yl]-12,12-dimethyl-2λ^6-thia-3,9,11,19,21-pentaazatetracyclo[18.2.2.111,14.05,10]pentacosa-1(22),5,7,9,20,23-hexaene-2,2,4-trione] | < 1 | +++ (+++ is >60%) | ring closure, yield after HPLC ([1]; from CC(C)(C)OC(=O)N1CC(CCCCNc2ccc(S(=O)(=O)NC(=O)c3ccc(-n4ccc(OCCC(C5CC5)C5CC5)n4)nc3Cl)cn2)CC1(C)C, 17-membered ring, K2CO3/CsF/3A MS, 107.7 mM, 160.0 °C, 2 steps): 15%
